Patent US20100119483A1, “PEPTIDE VIRAL ENTRY INHIBITORS” (Schering Corporation, priority 2004, published 2010)
Values joined by “and” are separate entries in the source; they are usually repeats but may differ in a detail not shown here. Equal values may be shown once.

Test system: HCV pseudoparticles
Assay: HCV pseudoparticle (HCVpp) entry assay in Huh7 hepatoma cells, luciferase readout
Assay type: cell-based, hepatitis C virus
Settings: for % of control at ~30 uM: percentage of hepatitis C virus cellular entry at 30 μM peptide vs uninhibited control; for HCVpp % inh: truncated peptides tested at 50 uM in 1% DMSO; for viral entry as a percentage of the uninhibited control: HCV entry, duplicates
Method in brief: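 Pseudoparticles carrying HCV E1/E2 on an HIV luciferase backbone were produced in 293T cells; peptide was pre-incubated 1 h at 37 °C with Huh7 cells, then virus added and luciferase read after 72 h. Dose-response used 10-point 3-fold titration from 100 ug/ml; envelope-less particles controlled non-specific entry.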

[1] = 0.1 nM of peptide (printed for three rows), two values per peptide and row
[2] = 0.3 nM of peptide, two values per peptide
[3] = 1 nM of peptide, two values per peptide
[4] = 3 nM of peptide, two values per peptide
[5] = 10 nM of peptide, two values per peptide
[6] = 30 nM of peptide, two values per peptide
[7] = 100 nM of peptide, two values per peptide
[8] = 300 nM of peptide, two values per peptide
[9] = 10000 nM of peptide, two values per peptide
[10] = 30000 nM of peptide, two values per peptide
[11] = 0.00003 uM of peptide, two values per peptide and row
[12] = 0.0001 uM of peptide, two values per peptide
[13] = 0.0003 uM of peptide, two values per peptide
[14] = 0.001 uM of peptide, two values per peptide
[15] = 0.003 uM of peptide, two values per peptide
[16] = 0.01 uM of peptide, two values per peptide
[17] = 0.03 uM of peptide, two values per peptide
[18] = 0.1 uM of peptide, two values per peptide
[19] = 0.3 uM of peptide, two values per peptide
[20] = 30 uM of peptide, two values per peptide

Substance: A-I-K-W-E-Y-V-L-L-P-F-L-L (AIKWEYVLLPFLL; HCV peptide) [SEQ ID NO: 124]
- % control (HCVpp entry), proline scanning [1]: 87 % control and 98 % control and 89 % control and 104 % control and 109 % control and 97 % control
- % control (HCVpp entry), proline scanning [2]: 74 % control and 88 % control
- % control (HCVpp entry), proline scanning [3]: 89 % control and 102 % control
- % control (HCVpp entry), proline scanning [4]: 80 % control and 86 % control
- % control (HCVpp entry), proline scanning [5]: 67 % control and 102 % control
- % control (HCVpp entry), proline scanning [6]: 48 % control and 71 % control
- % control (HCVpp entry), proline scanning [7]: 66 % control and 83 % control
- % control (HCVpp entry), proline scanning [8]: 85 % control and 68 % control
- % control (HCVpp entry), proline scanning [9]: 85 % control and 60 % control
- % control (HCVpp entry), proline scanning [10]: 98 % control and 67 % control

Substance: A-I-K-W-E-Y-V-L-P-L-F-L-L (AIKWEYVLPLFLL; HCV peptide) [SEQ ID NO: 123]
- % control (HCVpp entry), proline scanning [1]: 78 % control and 81 % control and 104 % control and 86 % control and 117 % control and 94 % control
- % control (HCVpp entry), proline scanning [2]: 80 % control and 91 % control
- % control (HCVpp entry), proline scanning [3]: 108 % control and 77 % control
- % control (HCVpp entry), proline scanning [4]: 92 % control and 78 % control
- % control (HCVpp entry), proline scanning [5]: 78 % control and 76 % control
- % control (HCVpp entry), proline scanning [6]: 74 % control and 75 % control
- % control (HCVpp entry), proline scanning [7]: 72 % control and 61 % control
- % control (HCVpp entry), proline scanning [8]: 41 % control and 44 % control
- % control (HCVpp entry), proline scanning [9]: 61 % control and 51 % control
- % control (HCVpp entry), proline scanning [10]: 31 % control and 49 % control

Substance: A-I-K-W-E-Y-V-P-L-L-F-L-L (AIKWEYVPLLFLL; HCV peptide) [SEQ ID NO: 122]
- % control (HCVpp entry), proline scanning [1]: 81 % control and 70 % control and 89 % control and 86 % control and 115 % control and 111 % control
- % control (HCVpp entry), proline scanning [2]: 105 % control and 83 % control
- % control (HCVpp entry), proline scanning [3]: 73 % control and 100 % control
- % control (HCVpp entry), proline scanning [4]: 106 % control and 80 % control
- % control (HCVpp entry), proline scanning [5]: 85 % control and 67 % control
- % control (HCVpp entry), proline scanning [6]: 70 % control and 113 % control
- % control (HCVpp entry), proline scanning [7]: 75 % control and 59 % control
- % control (HCVpp entry), proline scanning [8]: 76 % control and 53 % control
- % control (HCVpp entry), proline scanning [9]: 54 % control and 43 % control

Substance: A-I-K-W-G-Y-V-L-L-L-F-L-L (AIKWGYVLLLFLL; HCV peptide) [SEQ ID NO: 84, Gly-scan]
- % control (HCVpp entry), glycine scanning [11]: 118 % control and 84 % control and 87 % control and 110 % control
- % control (HCVpp entry), glycine scanning [12]: 62 % control and 75 % control
- % control (HCVpp entry), glycine scanning [13]: 91 % control and 81 % control
- % control (HCVpp entry), glycine scanning [14]: 74 % control and 73 % control
- % control (HCVpp entry), glycine scanning [15]: 70 % control
- % control (HCVpp entry), glycine scanning [16]: 72 % control and 53 % control
- % control (HCVpp entry), glycine scanning [17]: 62 % control and 52 % control
- % control (HCVpp entry), glycine scanning [18]: 41 % control and 39 % control
- % control (HCVpp entry), glycine scanning [19]: 37 % control and 57 % control
- % control (HCVpp entry), glycine scanning [20]: 22 % control and 38 % control
- % of control at ~30 uM: 19%

Substance: A-I-K-W-P-Y-V-L-L-L-F-L-L (AIKWPYVLLLFLL; HCV peptide) [SEQ ID NO: 119]
- % control (HCVpp entry), proline scanning [1]: 93 % control and 76 % control and 87 % control and 85 % control and 102 % control and 126 % control
- % control (HCVpp entry), proline scanning [2]: 78 % control and 77 % control
- % control (HCVpp entry), proline scanning [3]: 72 % control and 68 % control
- % control (HCVpp entry), proline scanning [4]: 94 % control and 62 % control
- % control (HCVpp entry), proline scanning [5]: 54 % control and 48 % control
- % control (HCVpp entry), proline scanning [7]: 40 % control and 46 % control
- % control (HCVpp entry), proline scanning [8]: 40 % control and 47 % control
- % control (HCVpp entry), proline scanning [10]: 28 % control and 17 % control

Substance: A-I-P-W-E-Y-V-L-L-L-F-L-L (AIPWEYVLLLFLL; HCV peptide) [SEQ ID NO: 117]
- % control (HCVpp entry), proline scanning [2]: 66 % control and 117 % control
- % control (HCVpp entry), proline scanning [3]: 68 % control and 87 % control
- % control (HCVpp entry), proline scanning [4]: 89 % control and 66 % control
- % control (HCVpp entry), proline scanning [5]: 75 % control
- % control (HCVpp entry), proline scanning [6]: 58 % control and 71 % control
- % control (HCVpp entry), proline scanning [7]: 38 % control and 54 % control
- % control (HCVpp entry), proline scanning [8]: 48 % control and 41 % control
- % control (HCVpp entry), proline scanning [9]: 54 % control and 31 % control

Substance: A-K-K-W-E-Y-V-L-L-L-E-L-L [SEQ ID NO: 102]
- % control (HCVpp entry), lysine scanning [1]: 104 % control and 102 % control and 89 % control and 108 % control and 98 % control and 106 % control
- % control (HCVpp entry), lysine scanning [2]: 141 % control and 107 % control
- % control (HCVpp entry), lysine scanning [3]: 96 % control and 83 % control
- % control (HCVpp entry), lysine scanning [4]: 70 % control and 66 % control
- % control (HCVpp entry), lysine scanning [5]: 67 % control and 62 % control
- % control (HCVpp entry), lysine scanning [6]: 33 % control and 41 % control
- % control (HCVpp entry), lysine scanning [7]: 16 % control and 25 % control
- % control (HCVpp entry), lysine scanning [8]: 29 % control and 23 % control
- % of control at ~30 uM: 5%

Substance: F-A-I-K-W-E-Y-V-L-L-L-F-L-L [SEQ ID NO: 105]
- HCVpp % inh: 95%

Substance: G-I-K-W-E-Y-V-L-L-L-F-L-L [SEQ ID NO: 82]
- % control (HCVpp entry), glycine scanning [11]: 74 % control and 88 % control and 118 % control and 120 % control
- % control (HCVpp entry), glycine scanning [12]: 62 % control and 61 % control
- % control (HCVpp entry), glycine scanning [13]: 68 % control and 71 % control
- % control (HCVpp entry), glycine scanning [14]: 90 % control and 66 % control
- % control (HCVpp entry), glycine scanning [15]: 71 % control and 80 % control
- % control (HCVpp entry), glycine scanning [16]: 53 % control and 43 % control
- % control (HCVpp entry), glycine scanning [17]: 46 % control and 41 % control
- % control (HCVpp entry), glycine scanning [18]: 33 % control and 27 % control
- % control (HCVpp entry), glycine scanning [19]: 33 % control and 25 % control
- % control (HCVpp entry), glycine scanning (10 uM of peptide, two values per peptide): 33 % control and 29 % control
- % control (HCVpp entry), glycine scanning [20]: 18 % control and 29 % control
- % of control at ~30 uM: 22%

Substance: I-K-W-E-Y-V-L-L-L-F-L-L [SEQ ID NO: 107]
- HCVpp % inh: 88%

Substance: K-I-K-W-E-Y-V-L-L-L-F-L-L [SEQ ID NO: 101]
- % control (HCVpp entry), lysine scanning [1]: 83 % control and 107 % control and 77 % control and 104 % control and 119 % control and 101 % control
- % control (HCVpp entry), lysine scanning [2]: 96 % control and 103 % control
- % control (HCVpp entry), lysine scanning [3]: 65 % control and 90 % control
- % control (HCVpp entry), lysine scanning [4]: 52 % control and 77 % control
- % control (HCVpp entry), lysine scanning [5]: 54 % control and 57 % control
- % control (HCVpp entry), lysine scanning [6]: 37 % control and 28 % control
- % control (HCVpp entry), lysine scanning [7]: 26 % control and 25 % control
- % control (HCVpp entry), lysine scanning [8]: 26 % control and 29 % control
- % of control at ~30 uM: 4%

Substance: K-W-E-Y-V-L-L-L-F-L-L (KWEYVLLLFLL; HCV peptide) [SEQ ID NO: 108, N-terminal truncation]
- HCVpp % inh: 78%

Substance: LLFLLLVYEWKIA [retro-inverso]
- viral entry as a percentage of the uninhibited control (0.1 nM of peptide (three lines)): 97%
- viral entry as a percentage of the uninhibited control (0.3 nM of peptide, 0.0003 µM): 91% and 81% and 74% and 99% and 126% and 117%
- viral entry as a percentage of the uninhibited control (1 nM of peptide, 0.001 µM): 83% and 72% and 91% and 115% and 106%
- viral entry as a percentage of the uninhibited control (3 nM of peptide, 0.003 µM): 88% and 68% and 78% and 92% and 86% and 98%
- viral entry as a percentage of the uninhibited control (10 nM of peptide, 0.01 µM): 66% and 100% and 76% and 84% and 128% and 104%
- viral entry as a percentage of the uninhibited control (30 nM of peptide, 0.03 µM): 68% and 62% and 76% and 113% and 121% and 110%
- viral entry as a percentage of the uninhibited control (30000 nM of peptide, 30 µM): 107% and 87% and 103% and 125% and 95%
- activity compared to the wild type 13-mer peptide (HCVpp entry inhibition, in words): completely lost activity
